# Results as given in patent publication US20080004253A1, “Thiazolopyrimidine modulators of TRPV1” (priority 2006, published 2008).
# Assays:
# [1] = biological target: T1, human TRPV1 (Homo sapiens, UniProt Q8NER1); assay: Functional assay: block of capsaicin-induced Ca2+ influx, human assay (hTRPV1/HEK293, FLIPR); format: cell-based; details: hTRPV1/HEK293 cells, 150 nM capsaicin challenge, Fluo-3 fluorescence; mean; > value = solubility limit in assay medium
# T1 construct: expressed in transfected cells; host or cells: HEK293 (hTRPV1/HEK293), zeocin selection
# Method in brief: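 HEK293 cells stably expressing human TRPV1, fluo3-loaded, preincubated 30 min with compound (serial 3-fold dilutions from 10 μM, duplicate) in 20 μM Ca2+ buffer. Capsaicin response taken as fluo3 fluorescence change before vs 100 s after agonist; IC50 by non-linear regression, mean values; free base or TFA salt.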
# [2] = biological target: T2, rat TRPV1 (Rattus norvegicus, UniProt O35433); assay: Functional assay: block of capsaicin-induced Ca2+ influx, rat assay (rTRPV1/HEK293, FLIPR); format: cell-based; details: rTRPV1/HEK293 cells, capsaicin challenge, Fluo-3 fluorescence; mean; > value = solubility limit in assay medium
# T2 construct: expressed in transfected cells; host or cells: HEK293 (rTRPV1/HEK293), geneticin selection
# Method in brief: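 Compounds, as free base or TFA salt, tested from 10 μM in three-fold steps on rTRPV1-transfected HEK293 cells, with 30 min preincubation in low-calcium (20 μM) buffer. Capsaicin-evoked Ca2+ influx measured by FLIPR fluo3 signal before and 100 s after addition. Averaged IC50 from non-linear fits.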
# T1 sequence (Q8NER1 whole entry): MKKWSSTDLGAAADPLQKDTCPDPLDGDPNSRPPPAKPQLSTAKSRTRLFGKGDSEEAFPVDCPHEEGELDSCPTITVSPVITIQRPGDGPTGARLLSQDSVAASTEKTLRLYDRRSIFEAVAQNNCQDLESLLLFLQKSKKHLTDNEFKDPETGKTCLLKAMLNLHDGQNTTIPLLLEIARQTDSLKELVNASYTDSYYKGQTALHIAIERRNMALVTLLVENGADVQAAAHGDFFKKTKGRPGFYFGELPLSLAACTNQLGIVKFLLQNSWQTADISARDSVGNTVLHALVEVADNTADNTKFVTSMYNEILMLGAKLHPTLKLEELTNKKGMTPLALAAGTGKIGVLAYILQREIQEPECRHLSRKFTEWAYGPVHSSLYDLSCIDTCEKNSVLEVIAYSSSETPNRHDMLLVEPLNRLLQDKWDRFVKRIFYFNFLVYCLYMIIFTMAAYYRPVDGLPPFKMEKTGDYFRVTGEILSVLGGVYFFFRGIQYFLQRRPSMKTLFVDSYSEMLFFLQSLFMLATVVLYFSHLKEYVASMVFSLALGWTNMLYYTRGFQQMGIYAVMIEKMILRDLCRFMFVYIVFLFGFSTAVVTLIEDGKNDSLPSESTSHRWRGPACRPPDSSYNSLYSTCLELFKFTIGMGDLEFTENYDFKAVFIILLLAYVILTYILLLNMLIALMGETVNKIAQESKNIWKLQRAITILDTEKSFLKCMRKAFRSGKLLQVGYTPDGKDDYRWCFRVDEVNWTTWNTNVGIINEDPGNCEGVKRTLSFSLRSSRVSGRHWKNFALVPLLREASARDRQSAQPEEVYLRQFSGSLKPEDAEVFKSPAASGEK
# T2 sequence (O35433 whole entry): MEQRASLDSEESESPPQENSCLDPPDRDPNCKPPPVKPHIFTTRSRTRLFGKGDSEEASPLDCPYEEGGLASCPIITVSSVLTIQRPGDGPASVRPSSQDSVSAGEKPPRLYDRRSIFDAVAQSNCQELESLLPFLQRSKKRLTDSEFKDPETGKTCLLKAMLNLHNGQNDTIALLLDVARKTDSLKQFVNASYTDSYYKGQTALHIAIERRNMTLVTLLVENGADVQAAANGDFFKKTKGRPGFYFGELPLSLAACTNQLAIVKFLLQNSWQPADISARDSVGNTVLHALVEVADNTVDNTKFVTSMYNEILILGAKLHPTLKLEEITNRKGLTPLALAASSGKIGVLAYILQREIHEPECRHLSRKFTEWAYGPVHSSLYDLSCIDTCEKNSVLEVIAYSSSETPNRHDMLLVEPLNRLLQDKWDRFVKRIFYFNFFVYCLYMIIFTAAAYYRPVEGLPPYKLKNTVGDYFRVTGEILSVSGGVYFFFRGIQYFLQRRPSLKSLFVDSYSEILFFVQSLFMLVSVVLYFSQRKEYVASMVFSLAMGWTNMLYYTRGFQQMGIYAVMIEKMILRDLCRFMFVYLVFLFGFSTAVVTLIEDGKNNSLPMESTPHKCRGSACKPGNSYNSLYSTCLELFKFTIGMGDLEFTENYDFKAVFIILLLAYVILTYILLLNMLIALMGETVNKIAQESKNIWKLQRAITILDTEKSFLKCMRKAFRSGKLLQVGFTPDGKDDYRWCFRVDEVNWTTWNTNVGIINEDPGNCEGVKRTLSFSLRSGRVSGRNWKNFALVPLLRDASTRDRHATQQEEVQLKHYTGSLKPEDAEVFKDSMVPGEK
smiles,measurement,setting,value
"Cc1cccc(C)c1Nc1nc2c(Nc3ccc(SC(F)(F)F)cc3)ncnc2s1 [Example 40, N^2-(2,6-Dimethyl-phenyl)-N^7-(4-trifluoromethylsulfanyl-phenyl)-thiazolo[5,4-d]pyrimidine-2,7-diamine]",IC50,[1],67 nM
same,IC50,[2],16 nM
"Cc1noc(C)c1Nc1nc2c(Nc3ccc(C(C)(C)C#N)cc3)ncnc2s1 [Example 223, 2-[4-({2-[(3,5-Dimethylisoxazol-4-yl)amino][1,3]thiazolo[5,4-d]pyrimidin-7-yl}amino)phenyl]-2-methylpropanenitrile]",IC50,[1],169 nM
same,IC50,[2],95 nM
"Cc1cccc(C)c1Nc1nc2c(Nc3ccc(C(C)O)cc3)ncnc2s1 (racemic) [Example 140, (racemic)-1-{4-[2-(2,6-Dimethyl-phenylamino)-thiazolo[5,4-d]pyrimidin-7-ylamino]-phenyl}-ethanol]",IC50,[1],324 nM
same,IC50,[2],185 nM
"Cc1nc(Nc2ccccc2)c2nc(Nc3c(C)cccc3C)sc2n1 [Example 141, N^2-(2,6-Dimethyl-phenyl)-5-methyl-N^7-phenyl-thiazolo[5,4-d]pyrimidine-2,7-diamine]",IC50,[1],350 nM
same,IC50,[2],223 nM
"Cc1ccc(Nc2ncnc3sc(Nc4c(C)cccc4C)nc23)c(O)c1 [Example 158, 2-[2-(2,6-Dimethyl-phenylamino)-thiazolo[5,4-d]pyrimidin-7-ylamino]-5-methyl-phenol]",IC50,[1],1970 nM
same,IC50,[2],313 nM
"Cc1nc(Nc2ccc(S(=O)(=O)C(F)(F)F)cc2)c2nc(Nc3c(Cl)cccc3Cl)sc2n1 [Example 77, N^2-(2,6-Dichloro-phenyl)-5-methyl-N^7-(4-trifluoromethanesulfonyl-phenyl)-thiazolo[5,4-d]pyrimidine-2,7-diamine]",IC50,[1],1 nM
same,IC50,[2],2 nM
"CS(=O)(=O)c1ccc(Nc2ncnc3sc(Nc4ccccc4S(C)(=O)=O)nc23)cc1 [Example 198, N^2-(2-Methanesulfonyl-phenyl)-N^7-(4-methanesulfonyl-phenyl)-thiazolo[5,4-d]pyrimidine-2,7-diamine]",IC50,[1],9740 nM
same,IC50,[2],> 20000 nM
"C[C@H]1COCCN1c1nc(Nc2ccc(C(F)(F)F)cc2)c2nc(Nc3c(Cl)cccc3Cl)sc2n1 [Example 192, (3S)-N^2-(2,6-Dichloro-phenyl)-5-(3-methyl-morpholin-4-yl)-N^7-(4-trifluoromethyl-phenyl)-thiazolo[5,4-d]pyrimidine-2,7-diamine]",IC50,[1],63 nM
same,IC50,[2],19 nM
"CSc1nc(Nc2ccc(S(=O)(=O)N(C)C)cc2)c2nc(Nc3c(Cl)cccc3Cl)sc2n1 [Example 127, 4-[2-(2,6-Dichloro-phenylamino)-5-methylsulfanyl-thiazolo[5,4-d]pyrimidin-7-ylamino]-N,N-dimethyl-benzenesulfonamide]",IC50,[1],138 nM
same,IC50,[2],59 nM
"Cc1ccccc1Nc1nc2c(Nc3ccc(S(=O)(=O)N4CCOCC4)cc3)ncnc2s1 [Example 217, N^2-(2-Methylphenyl)-N^7-[4-(morpholin-4-ylsulfonyl)phenyl][1,3]thiazolo[5,4-d]pyrimidine-2,7-diamine]",IC50,[1],8 nM
same,IC50,[2],4 nM
"Cc1cccc(C)c1Nc1nc2c(Nc3ccc(S(C)(=O)=O)cc3)ncnc2s1 [Example 115, N^2-(2,6-Dimethyl-phenyl)-N^7-(4-methanesulfonyl-phenyl)-thiazolo[5,4-d]pyrimidine-2,7-diamine]",IC50,[1],44 nM
same,IC50,[2],4 nM
"CC(C)C1CCCN1c1nc(Nc2ccc(C(F)(F)F)cc2)c2nc(Nc3c(Cl)cccc3Cl)sc2n1 (racemic) [Example 89, (racemic)-N^2-(2,6-Dichloro-phenyl)-5-(2-isopropyl-pyrrolidin-1-yl)-N^7-(4-trifluoromethyl-phenyl)-thiazolo[5,4-d]pyrimidine-2,7-diamine]",IC50,[1],7 nM
same,IC50,[2],2 nM
"Cc1cccc(C)c1Nc1nc2c(Nc3ccc(S(=O)(=O)C(C)C)cc3)ncnc2s1 [Example 122, N^2-(2,6-Dimethyl-phenyl)-N^7-[4-(Propane-2-sulfonyl)-phenyl]-thiazolo[5,4-d]pyrimidine-2,7-diamine]",IC50,[1],87 nM
same,IC50,[2],129 nM
"COC(=O)C(C)(C)c1ccc(Nc2ncnc3sc(Nc4c(C)noc4C)nc23)cc1 [Example 222, Methyl 2-[4-({2-[(3,5-dimethylisoxazol-4-yl)amino][1,3]thiazolo[5,4-d]pyrimidin-7-yl}amino)phenyl]-2-methylpropanoate]",IC50,[1],100 nM
same,IC50,[2],72 nM
"Cc1nc(Nc2ccc(C(C)C)cc2)c2nc(Nc3c(Cl)cccc3Cl)sc2n1 [Example 84, N^2-(2,6-Dichloro-phenyl)-N^7-(4-isopropyl-phenyl)-5-methyl-thiazolo[5,4-d]pyrimidine-2,7-diamine]",IC50,[1],4 nM
same,IC50,[2],2 nM
"FC(F)(F)c1ccc(Nc2nc(-c3ccccc3)nc3sc(Nc4c(Cl)cccc4Cl)nc23)cc1 [Example 70, N^2-(2,6-Dichloro-phenyl)-5-phenyl-N^7-(4-trifluoromethyl-phenyl)-thiazolo[5,4-d]pyrimidine-2,7-diamine]",IC50,[1],225 nM
same,IC50,[2],83 nM
"Cc1nc(Nc2ccc(C(F)(F)F)nc2)c2nc(Nc3c(Cl)cccc3Cl)sc2n1 [Example 6, N^2-(2,6-Dichloro-phenyl)-5-methyl-N^7-(6-trifluoromethyl-pyridin-3-yl)-thiazolo[5,4-d]pyrimidine-2,7-diamine]",IC50,[1],5 nM
same,IC50,[2],1 nM
"CS(=O)(=O)c1ccc(Nc2nc(NCC3CC3)nc3sc(Nc4c(Cl)cccc4Cl)nc23)cc1 [Example 184, N^5-Cyclopropylmethyl-N^2-(2,6-dichloro-phenyl)-N^7-(4-methanesulfonyl-phenyl)-thiazolo[5,4-d]pyrimidine-2,5,7-triamine]",IC50,[1],8 nM
same,IC50,[2],5 nM
"Cc1nc(Nc2ccc(C)c(F)c2)c2nc(Nc3c(C)cccc3C)sc2n1 [Example 133, N^2-(2,6-Dimethyl-phenyl)-N^7-(3-fluoro-4-methyl-phenyl)-5-methyl-thiazolo[5,4-d]pyrimidine-2,7-diamine]",IC50,[1],175 nM
same,IC50,[2],107 nM
"Cc1nc(Nc2cccnc2)c2nc(Nc3c(C)cccc3C)sc2n1 [Example 171, N^2-(2,6-Dimethyl-phenyl)-5-methyl-N^7-pyridin-3-yl-thiazolo[5,4-d]pyrimidine-2,7-diamine]",IC50,[1],> 20000 nM
same,IC50,[2],5320 nM
"Cc1cccc(C)c1Nc1nc2c(Nc3ccc(C(C)C)cc3)ncnc2s1 [Example 46, N^2-(2,6-Dimethyl-phenyl)-N^7-(4-isopropyl-phenyl)-thiazolo[5,4-d]pyrimidine-2,7-diamine]",IC50,[1],8 nM
same,IC50,[2],5 nM
"Cc1nc(Nc2ccc(SC(C)C)cc2)c2nc(Nc3c(C)cccc3C)sc2n1 [Example 106, N^2-(2,6-Dimethyl-phenyl)-N^7-(4-isopropylsulfanyl-phenyl)-5-methyl-thiazolo[5,4-d]pyrimidine-2,7-diamine]",IC50,[1],25 nM
same,IC50,[2],26 nM
"CN1CCN(CCCNc2nc(Nc3ccc(C(F)(F)F)cc3)c3nc(Nc4c(Cl)cccc4Cl)sc3n2)CC1 [Example 153, N^2-(2,6-Dichloro-phenyl)-N^5-[3-(4-methyl-piperazin-1-yl)-propyl]-N^7-(4-trifluoromethyl-phenyl)-thiazolo[5,4-d]pyrimidine-2,5,7-diamine]",IC50,[1],1420 nM
same,IC50,[2],440 nM
"CSc1ccc(Nc2nc(C)nc3sc(Nc4c(C)cccc4C)nc23)cc1 [Example 114, N^2-(2,6-Dimethyl-phenyl)-5-methyl-N^7-(4-methylsulfanyl-phenyl)-thiazolo[5,4-d]pyrimidine-2,7-diamine]",IC50,[1],39 nM
same,IC50,[2],13 nM
"Cc1nc(Nc2ccccc2)c2nc(Nc3c(Cl)cccc3Cl)sc2n1 [Example 170, N^2-(2,6-Dichloro-phenyl)-5-methyl-N^7-phenyl-thiazolo[5,4-d]pyrimidine-2,7-diamine]",IC50,[1],> 20000 nM
same,IC50,[2],> 20000 nM
"Cc1noc(C)c1Nc1nc2c(Nc3ccc(S(=O)(=O)N4CCOCC4)cc3)ncnc2s1 [Example 221, N^2-(3,5-Dimethylisoxazol-4-yl)-N^7-[4-(morpholin-4-ylsulfonyl)phenyl][1,3]thiazolo[5,4-d]pyrimidine-2,7-diamine]",IC50,[1],1080 nM
same,IC50,[2],271 nM
"Cc1nc(Nc2ccc(SC(F)(F)F)c(Cl)c2)c2nc(Nc3c(C)cccc3C)sc2n1 [Example 131, N^7-(3-Chloro-4-trifluoromethylsulfanyl-phenyl)-N^2-(2,6-dimethyl-phenyl)-5-methyl-thiazolo[5,4-d]pyrimidine-2,7-diamine]",IC50,[1],171 nM
same,IC50,[2],140 nM
"COC(=O)c1scc(C)c1Nc1nc2c(Nc3ccc(C(F)(F)F)c(Cl)c3)ncnc2s1 [Example 207, 3-[7-(3-Chloro-4-trifluoromethyl-phenylamino)-thiazolo[5,4-d]pyrimidin-2-ylamino]-4-methyl-thiophene-2-carboxylic acid methyl ester]",IC50,[1],758 nM
same,IC50,[2],345 nM
"Cc1nc(N(C)c2ccc(C(F)(F)F)cc2)c2nc(Nc3c(Cl)cccc3Cl)sc2n1 [Example 9, N^2-(2,6-Dichloro-phenyl)-5,N^7-dimethyl-N^7-(4-trifluoromethyl-phenyl)-thiazolo[5,4-d]pyrimidine-2,7-diamine]",IC50,[1],> 20000 nM
same,IC50,[2],> 20000 nM
"Cc1cccc(C)c1Nc1nc2c(Nc3ccc(C(F)(F)F)cc3Cl)ncnc2s1 [Example 167, N^7-(2-Chloro-4-trifluoromethyl-phenyl)-N^2-(2,6-dimethyl-phenyl)-thiazolo[5,4-d]pyrimidine-2,7-diamine]",IC50,[1],> 6670 nM
same,IC50,[2],> 6670 nM
